Test results from patent US20030119716A1, “Methods for screening, treating and diagnosing G-protein coupled receptor-related disorders and compositions thereof” (Wyeth, priority 2001, published 2003).
“Also recorded” adds a separate entry of the source. Read-outs that look alike come from different tables or passages of the source.

Tests used:
Erk1/2 phosphorylation = test: Western blot of phospho-Erk1/2 in CHO-D2R cells; format: cell-based, Chinese hamster; conditions: 25 nM PD098059, 30 minutes before 100 nM quinpirole, 5 min
Experimental: Cell lysates were prepared by incubating cells for 5 minutes on ice with a lysis buffer containing […] NaCl, 50 mM Tris, pH 7.5, 5 mM EDTA, 1% Triton, and a mixture of protease inhibitors. Cells were then scraped off plates and sonicated. The detergent-insoluble material was removed by microcentrifugation for 10 minutes at 4° C. An equal amount of protein was run on SDS gels (Novex, Carlsbad, Calif.) and transferred to nitrocellulose (Bio-Rad, Hercules, Calif.). […] The membrane was washed, incubated for 1 hour in TBS containing appropriate HRP-conjugated secondary antibodies, washed again, and developed with the ECL reagent (Amersham Pharmacia Biotech, Piscataway, N.J.).

[1] = test system: c-fos SRE activation in CHO cells stably expressing D2R; test: SRE-luciferase reporter assay, quinpirole-stimulated c-fos SRE activation in CHO-D2R cells; format: cell-based, Chinese hamster
[2] = transfection of dominant-negative Rho family mutant or C3 (3 μg), 100 nM quinpirole

In the case of `COc1cccc(-c2cc(=O)c3ccccc3o2)c1N` [PD098059, reference compound], the “effect on quinpirole-stimulated Erk1/2 phosphorylation” value (Erk1/2 phosphorylation) is reported as “completely suppressed; also recorded: inhibited”, the “effect on quinpirole-stimulated SRE activation” value ([1]; 25 nM PD098059, 100 nM quinpirole) is reported as “only partially suppressed; also recorded: inhibited” and the “diminution of quinpirole-stimulated SRE activity” value ([1]; 25 nM PD098059, 100 nM quinpirole, compared to vehicle) is reported as “about 50%”.

For `COC[C@H]1OC(=O)c2coc3c2[C@@]1(C)C1=C(C3=O)[C@@H]2CCC(=O)[C@@]2(C)C[C@H]1OC(C)=O` [wortmannin, reference compound], the “effect on quinpirole-stimulated SRE activation” value ([1]; 50 nM wortmannin, 100 nM quinpirole) was “no effect”.

With “CdcN17: dominant-negative mutant of Cdc42, Thr17 substituted with Asn” the “effect on quinpirole-stimulated SRE activation” value [1, 2] was “suppressed”.

With “RhoN19: dominant-negative mutant of RhoA, Thr19 substituted with Asn” the “effect on quinpirole-stimulated SRE activation” value [1, 2] was “suppressed”.

pertussis toxin [reference compound] was tested, and the “effect on quinpirole-stimulated SRE activation” value [1] was “completely abolished; also recorded: abrogated”.
